From ChEMBL document CHEMBL1201862, “PubChem BioAssay data set” (2004)
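Dose response: 5 concentrations. Exposure: 48 h. Format: 96-well plates. Endpoint: linear interpolation; highest concentration if not reached. GI50 = concentration required for 50% inhibition of growth.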 Calls of active or inactive are those of the source. Rule as the data show it: active = GI50 up to about 1.1 µM and inactive = higher.

Key:
Assay in all cases: NCI anticancer screen, dose series, 48 h
NCI-H23 = system: NCI-H23
NCI-H522 = system: NCI-H522
SK-MEL-5 = system: SK-MEL-5
UACC-257 = system: UACC-257
OVCAR-8 = system: OVCAR-8
RPMI-8226 = system: RPMI-8226
K562 = system: K562
NCI-H460 = system: NCI-H460
SN12C = system: SN12C
IGROV-1 = system: IGROV-1
SNB-75 = system: SNB-75
NCI-H226 = system: NCI-H226
RXF 393 = system: RXF 393
HCT-116 = system: HCT-116
MDA-MB-435 = system: MDA-MB-435
Hs-578T = system: Hs-578T
HCT-15 = system: HCT-15
T47D = system: T47D
HCC 2998 = system: HCC 2998

SMILES | GI50 (NCI-H23) | GI50 (NCI-H522) | GI50 (SK-MEL-5) | GI50 (UACC-257) | GI50 (OVCAR-8) | GI50 (RPMI-8226) | GI50 (K562) | GI50 (NCI-H460) | GI50 (SN12C) | GI50 (IGROV-1) | GI50 (SNB-75) | GI50 (NCI-H226) | GI50 (RXF 393) | GI50 (HCT-116) | GI50 (MDA-MB-435) | GI50 (Hs-578T) | GI50 (HCT-15) [µM] | GI50 (T47D) | GI50 (HCC 2998)
Nc1c(S(=O)(=O)O)cc(S(=O)(=O)O)c2ccc(/N=N/c3ccccc3)c(O)c12 | > 100 µM (inactive) | > 100 µM (inactive) | > 100 µM (inactive) | > 100 µM (inactive) | > 100 µM (inactive) | > 100 µM (inactive) | 43.3 µM (inactive) | > 100 µM (inactive) | > 100 µM (inactive) | > 100 µM (inactive) | > 100 µM (inactive) | > 100 µM (inactive) | > 100 µM (inactive) | > 100 µM (inactive) | > 100 µM (inactive) | > 100 µM (inactive) | > 100 | > 100 µM (inactive) | –
n1onc2c1NC1Nc3nonc3NC1N2 (stereo not drawn) | > 100 µM (inactive) | > 100 µM (inactive) | > 100 µM (inactive) | – | > 100 µM (inactive) | > 100 µM (inactive) | > 100 µM (inactive) | > 100 µM (inactive) | > 100 µM (inactive) | > 100 µM (inactive) | > 100 µM (inactive) | > 100 µM (inactive) | – | > 100 µM (inactive) | > 100 µM (inactive) | > 100 µM (inactive) | > 100 | > 100 µM (inactive) | > 100 µM (inactive)
COc1ccccc1/C=N/Nc1nnc2c3ccccc3c3ncccc3c2n1 | > 100 µM (inactive) | 70.6 µM (inactive) | 89.5 µM (inactive) | > 100 µM (inactive) | 30 µM (inactive) | 69.2 µM (inactive) | 70.8 µM (inactive) | 45.1 µM (inactive) | 87.5 µM (inactive) | 53.1 µM (inactive) | 19.3 µM (inactive) | – | 18.1 µM (inactive) | 72.4 µM (inactive) | > 100 µM (inactive) | 21 µM (inactive) | > 100 | 39.7 µM (inactive) | 71.9 µM (inactive)
CN(C)c1ccc(/C=C2\N=C(c3ccccc3)N(/N=C3\C(=O)Nc4ccccc43)C2=O)cc1 | > 100 µM (inactive) | 23.4 µM (inactive) | 47.8 µM (inactive) | 85.3 µM (inactive) | 55 µM (inactive) | – | 32 µM (inactive) | 50.5 µM (inactive) | 56.9 µM (inactive) | 25.9 µM (inactive) | 57.9 µM (inactive) | – | 45.1 µM (inactive) | 57.3 µM (inactive) | 20.4 µM (inactive) | 38.8 µM (inactive) | 61.5 | 41.6 µM (inactive) | 52.4 µM (inactive)
O=C(NC1CCN(Cc2ccccc2)CC1)c1ccc(I)cc1 | 94.2 µM (inactive) | 63.5 µM (inactive) | 17.7 µM (inactive) | 45.8 µM (inactive) | > 100 µM (inactive) | 63.5 µM (inactive) | 42.4 µM (inactive) | > 100 µM (inactive) | > 100 µM (inactive) | 94 µM (inactive) | – | 33.4 µM (inactive) | 25.2 µM (inactive) | 39.6 µM (inactive) | 33.3 µM (inactive) | 33.2 µM (inactive) | 59.6 | > 100 µM (inactive) | –
CCCCC1Cc2cc(OC)ccc2-c2nc3cc(OC)ccc3n21.CCCCC1Cc2cc(OC)ccc2-c2nc3ccc(OC)cc3n21 (stereo not drawn) | 14.7 µM (inactive) | 7.67 µM (inactive) | 14.3 µM (inactive) | 14.4 µM (inactive) | 15.6 µM (inactive) | 6.81 µM (inactive) | 10.5 µM (inactive) | 15.4 µM (inactive) | 14.7 µM (inactive) | 11.1 µM (inactive) | – | 14 µM (inactive) | 17 µM (inactive) | 10.9 µM (inactive) | 13.2 µM (inactive) | 12.7 µM (inactive) | 3.37 | 13.1 µM (inactive) | –
COc1cc2cc(C(=O)N3CC(CCl)c4ccc([N+](=O)[O-])cc43)[nH]c2c(OC)c1OC (stereo not drawn) | > 100 µM (inactive) | > 100 µM (inactive) | > 100 µM (inactive) | > 100 µM (inactive) | > 100 µM (inactive) | > 100 µM (inactive) | > 100 µM (inactive) | – | > 100 µM (inactive) | > 100 µM (inactive) | > 100 µM (inactive) | – | > 100 µM (inactive) | > 100 µM (inactive) | > 100 µM (inactive) | 74.5 µM (inactive) | > 100 | > 100 µM (inactive) | > 100 µM (inactive)
COC(=O)C12Oc3ccc(-c4ccc5c(c4O)C(O)=C4C(=O)CC(C)C(O)C4(C(=O)OC)O5)c(O)c3C(O)=C1C(=O)CC(C)C2O (stereo not drawn) | 0.0615 µM (active) | 0.0304 µM (active) | 0.0394 µM (active) | 0.073 µM (active) | 0.094 µM (active) | 0.0494 µM (active) | 0.0753 µM (active) | 0.0421 µM (active) | 0.121 µM (active) | 0.104 µM (active) | 0.241 µM (active) | 0.416 µM (active) | 0.0877 µM (active) | 0.126 µM (active) | 0.0634 µM (active) | 0.135 µM (active) | 0.216 | 0.25 µM (active) | –
COC(=O)C12CCC(C(=O)OC)(Cc3c(c4ccccc4n3S(=O)(=O)c3ccccc3)C1)C2=O (stereo not drawn) | > 100 µM (inactive) | 20 µM (inactive) | 9.29 µM (inactive) | > 64.1 µM (inactive) | > 92.7 µM (inactive) | > 100 µM (inactive) | 62.1 µM (inactive) | > 67 µM (inactive) | > 100 µM (inactive) | > 26.7 µM (inactive) | > 60.7 µM (inactive) | – | 1.61 µM (inactive) | – | > 100 µM (inactive) | > 46.6 µM (inactive) | > 100 | > 100 µM (inactive) | > 76.9 µM (inactive)
COc1ccc(C(Cc2ccccc2)C2NC(=S)NC2=O)cc1 (stereo not drawn) | > 25 µM (inactive) | > 25 µM (inactive) | > 25 µM (inactive) | > 25 µM (inactive) | > 25 µM (inactive) | > 25 µM (inactive) | > 25 µM (inactive) | > 25 µM (inactive) | > 25 µM (inactive) | > 25 µM (inactive) | > 25 µM (inactive) | > 25 µM (inactive) | > 25 µM (inactive) | > 25 µM (inactive) | > 25 µM (inactive) | > 25 µM (inactive) | > 25 | > 25 µM (inactive) | –
O=C(/C=C/C=C/c1ccccc1)c1ccc2c(c1)CCCC2 | 35 µM (inactive) | 13.4 µM (inactive) | 37.2 µM (inactive) | 31.1 µM (inactive) | 33.1 µM (inactive) | 24.4 µM (inactive) | 30.9 µM (inactive) | – | 32.5 µM (inactive) | 42.8 µM (inactive) | – | 41.1 µM (inactive) | – | 31.6 µM (inactive) | 18.9 µM (inactive) | 4.84 µM (inactive) | 36 | 16 µM (inactive) | 23 µM (inactive)
O=C1c2c(Br)sc(Br)c2[C@@H](Cl)[C@H]1Cl | 12.9 µM (inactive) | 3.07 µM (inactive) | 16.1 µM (inactive) | 15.9 µM (inactive) | 15.1 µM (inactive) | 18.2 µM (inactive) | 10 µM (inactive) | 19.4 µM (inactive) | 8.87 µM (inactive) | 17.7 µM (inactive) | 17.6 µM (inactive) | 16.4 µM (inactive) | 15.5 µM (inactive) | 22.8 µM (inactive) | 19.3 µM (inactive) | 36.6 µM (inactive) | 19.7 | 19 µM (inactive) | –
